Laboratory results as given in EP4324461A1, “(E)-N-CINAMOYLAMINOALKANOLES WITH MELANOGENESIS INHIBITORY ACTIVITY” (UNIWERSYTET JAGIELLONSKI, priority 2022, dated 2024).

What was measured:
[1] = tested on: S. typhimurium TA1537; experiment: Ames microplate test, TA1537; format: cell-based, Salmonella typhimurium;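 note: reference level is the mean solvent-control yellow wells plus SD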
Protocol: (§1) Bacteria were grown overnight in growth medium.
(§2) Table 9. Ames microplate test results.

[2] = tested on: S. typhimurium TA98; experiment: Ames microplate test, TA98; format: cell-based, Salmonella typhimurium;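 note: reference level is the mean solvent-control yellow wells plus SD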
Protocol: as §1, §2

[3] = tested on: reconstructed human epidermis containing melanocytes MelanoDerm™ MEL-300-B; experiment: Melanogenesis inhibition in reconstructed human epidermis containing melanocytes (MelanoDerm); format: cell-based; details: 14 days; for Melanin content [% control, mean ± SD]: 7 applications; for Viability [% control, mean ± SD]: MTT
Protocol: (§3) The research was carried out on reconstructed human epidermis containing melanocytes MelanoDerm™ MEL-300-B from MatTek (Bratislava, Slovakia). The ratio of keratinocytes to melanocytes in the epidermis used is 10:1. Only medium purchased from the same manufacturer (EPI-100-NMM-113) was used to culture the epidermis during the experiments. Once the epidermis was obtained, it was transferred to 12-well plates containing 5 mL of medium/well. Plates were used to enable proper contact of the lower parts of the inserts with the substrate (so-called hanging-top plate). Solutions of the compounds were prepared immediately before their application. The solutions were applied to the inserts using a positive displacement pipette and then distributed using a sterile glass bulb headed Pasteur pipette. The application was repeated every 48 hours, a total of 7 applications were performed. Before the next application, each insert was rinsed with sterile DPBS and dried with a sterile cotton buds. The application was also accompanied by a change of the medium. […] The epidermis was cultured in an incubator ensuring appropriate humidity, temperature (37 °C) and CO2 concentration (5%).
The experiment was conducted for 14 days. After this time, the inserts were rinsed with DPBS and dried with a cotton swab. For the selected pool of inserts, tissue viability was assessed using the MTT (Thiazolyl Blue Tetrazolium bromide) test, the remaining ones were used to determine the amount of melanin. To assess viability, the inserts were transferred to 24-well plate containing 0.3 mL of DMEM medium with 1 mg/mL MTT and incubated for 3 hours in an incubator. The epidermis was then placed in 2 mL of isopropanol and the resulting formazan was extracted for 2 hours at room temperature. The absorbance of the samples was measured at 570 nm in a microplate reader and correlated with the absorbance of the control by the formula: % Viability = [OD (570 nm) for test compound/OD (570 nm) for control] × 100. To determine the amount of melanin, the inserts were incubated in 5% sodium bicarbonate for 30 min, then dried and placed in 0.5 mL of Solvable™ reagent, which caused complete lysis of the epidermis. After heating at 95 °C, the absorbance of the samples was measured at 405 nm in a microplate reader. On this basis, the reduction in the amount of melanin was calculated in relation to the control sample. The absorbance results were also correlated with a standard curve for synthetic melanin. […] Table 5. Viability and melanin content in the MelanoDerm epidermis after application of the tested samples, calculated on the basis of absorbance measurements.
as §3, with “Only media” for “Only medium”, “cotton bud.” for “cotton buds.”
The experiment was conducted for 14 days. After this time, the inserts were rinsed with DPBS and dried with a cotton bud. […]

[4] = tested on: Hepatocarcinoma HepG2; experiment: Safety, MTT test in HepG2; format: cell-based; details: 48 hours
Protocol: (§4) In order to test the safety of the compounds, both normal human cells were used: keratinocytes (HaCaT), fibroblasts (BJ), primary melanocytes that occur in the skin, as well as human cancer cells: the hepatocarcinoma line HepG2 and the neuroblastoma line SH-SY5Y, which are considered a model for the assessment of hepatocytotoxicity and neurocytotoxicity. The concentrations of the tested compounds in the range of 250-100 µM were used in the studies. The cell lines used in the research were purchased from the American Type Culture Collection (ATCC) and were cultured in media recommended by the manufacturer with the addition of FBS and antibiotics in an incubator ensuring appropriate culture conditions, i.e. humidity, temperature and CO2 concentration. Cells were seeded into multiwell plates and incubated with the test compounds for 48 hours. After this time, MTT and LDH tests were performed to assess cell viability. The MTT test is based on the ability to transform the substrate: [3-(4,5-dimethyl-2-thiazolyl)-2,5-diphenyl-2H-tetrazolium bromide into a colored product only by living cells. The absorbance at 570 nm, which corresponds to the absorption maximum for the product, is directly proportional to cell viability. The LDH test is based on testing the activity of the enzyme lactate dehydrogenase in the culture medium, which is released from cells as a result of damage to the cell membrane, e.g. as a result of cell death. Triton X-100 was used as a positive control in the test. The determination is colorimetric, the substrate is transformed by the released enzyme into a colored product, an increase in absorbance indicates a larger amount of the released enzyme, and thus confirms greater damage to cell membranes. Tables 7 and 8 present the results obtained, which correspond to the viability of cells incubated with the compounds in relation to the viability of cells constituting a control sample, i.e. incubated with the solvent (DMSO) at the same concentration as in the case of the groups tested in the MTT test or in relation to the results obtained for the Triton X-100 positive control in the LDH test. They indicate that the compounds are safe at the concentrations tested. Table 7. Viability of tested normal human cell lines: keratinocytes (HaCaT), fibroblasts (BJ) and primary melanocytes after incubation with the tested compounds - determination in the MTT test (% of solvent control ± SD) and LDH (percentage of positive control - Triton X-100.

[5] = tested on: S. typhimurium TA1535; experiment: Ames microplate test, TA1535;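 note: bacteria exposed to compound 90 min at 37 °C, then kept 48 h at 37 °C with indicator medium in 384-well plates, scoring wells that turned yellow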
Protocol: The study used the Ames microplate test (Ames MPF™ Penta 2 by Xenometrix, Allschwil, Switzerland). Growth medium, exposure medium, indicator medium, positive controls, hepatic microsomal fraction, NADP, glucose-6-phosphate, Salmonella typhimurium and Escherichia coli strains were components of the purchased experimental kit. Bacteria were grown overnight in growth medium. They were then exposed to the test compound at the appropriate concentration in exposure medium without or with the rat microsomal fraction S9 in 24-well plates for 90 min at 37 °C with shaking. Then, indicator medium was added to the wells and pipetted into 384-well plates, which were incubated for 48 hours at 37 °C without shaking. Results were assessed by counting the wells in which the medium turned yellow for each experimental condition.

[6] = tested on: Fibroblasts (BJ); experiment: Safety, MTT test in fibroblasts; format: cell-based; details: 48 hours
Protocol: as §4

| Structure (SMILES) | Increase in the number of yellow wells compared to the reference level ([1]; 0.5 mM, +S9) | Increase in the number of yellow wells compared to the reference level ([1]; 0.5 mM, without S9) | Increase in the number of yellow wells compared to the reference level ([1]; 1.0 mM, +S9) | Increase in the number of yellow wells compared to the reference level ([1]; 1.0 mM, without S9) | Increase in the number of yellow wells compared to the reference level ([1]; 2.0 mM, +S9) | Increase in the number of yellow wells compared to the reference level ([1]; 2.0 mM, without S9) | Increase in the number of yellow wells compared to the reference level ([2]; 0.5 mM, +S9) | Increase in the number of yellow wells compared to the reference level ([2]; 0.5 mM, without S9) | Increase in the number of yellow wells compared to the reference level ([2]; 1.0 mM, +S9) | Increase in the number of yellow wells compared to the reference level ([2]; 1.0 mM, without S9) | Increase in the number of yellow wells compared to the reference level ([2]; 2.0 mM, +S9) | Increase in the number of yellow wells compared to the reference level ([2]; 2.0 mM, without S9) | Melanin content [% control, mean ± SD] ([3]; 1.0% in 50% PEG (10 µL)) [% control] | Viability [% control, mean ± SD] ([3]; 1.0% in 50% PEG (10 µL)) [% control] | Hepatocarcinoma HepG2 MTT ([4]; 100 µM) | Hepatocarcinoma HepG2 MTT ([4]; 150 µM) | Hepatocarcinoma HepG2 MTT ([4]; 200 µM) | Hepatocarcinoma HepG2 MTT ([4]; 250 µM) | Increase in the number of yellow wells compared to the reference level ([5]; 0.5 mM, +S9) | Increase in the number of yellow wells compared to the reference level ([5]; 0.5 mM, without S9) | other results |
| --- | --- | --- | --- | --- | --- | --- | --- | --- | --- | --- | --- | --- | --- | --- | --- | --- | --- | --- | --- | --- | --- |
| O=C(/C=C/c1ccc(Cl)cc1)NCCCCCO [Compound A-111, (2E)-3-(4-chlorophenyl)-N-(5-hydroxypentyl)prop-2-enamide] | 0.27 | 0.80 | 0.45 | 0.54 | 0.27 | 0.54 | 1.50 | 0.7 | 0.83 | 0.44 | 1.50 | 1.00 | 94.95±3.57 | 101.45±6.45 | 101.10±6.01 % of solvent control | 97.87±3.27 % of solvent control | 98.19±3.27 % of solvent control | 96.27±2.57 % of solvent control | 0.58 | 0.55 | Melanin content [% control, mean ± SD] ([3]; 1.0% in 50% PEG (25 µL)): 81.23±6.53 % control; Viability [% control, mean ± SD] ([3]; 1.0% in 50% PEG (25 µL)): 85.67±7.25 % control; Melanin content [% control, mean ± SD] ([3]; 2.0% in 50% PEG (25 µL)): 67.26±9.18 % control; Viability [% control, mean ± SD] ([3]; 2.0% in 50% PEG (25 µL)): 106.64±7.78 % control; Increase in the number of yellow wells compared to the reference level ([5]; 1.0 mM, +S9): 0.35; Increase in the number of yellow wells compared to the reference level ([5]; 1.0 mM, without S9): 0.18; Increase in the number of yellow wells compared to the reference level ([5]; 2.0 mM, +S9): 0.23; Increase in the number of yellow wells compared to the reference level ([5]; 2.0 mM, without S9): 1.65; Fibroblasts (BJ) MTT ([6]; 100 µM): 99.88±5.25 % of solvent control; Fibroblasts (BJ) MTT ([6]; 150 µM): 100.94±3.37 % of solvent control; Fibroblasts (BJ) MTT ([6]; 200 µM): 98.94±4.04 % of solvent control; Fibroblasts (BJ) MTT ([6]; 250 µM): 94.51±5.03 % of solvent control |
| O=C(/C=C/c1ccccc1)NCCCCCO [Compound A-133, (2E)-N-(5-hydroxypentyl)-3-phenylprop-2-enamide] | 0.18 | 1.07 | 0.36 | 0.54 | 0.27 | 0.54 | 0.50 | 0.44 | 0.67 | 0.33 | 1.00 | 0.67 | 98.62±9.47 | 101.22±6.52 | 104.96±7.60 % of solvent control | 100.66±7.39 % of solvent control | 99.09±1.60 % of solvent control | 98.92±2.34 % of solvent control | 0.47 | 0.92 | Increase in the number of yellow wells compared to the reference level ([5]; 1.0 mM, +S9): 0.23; Increase in the number of yellow wells compared to the reference level ([5]; 1.0 mM, without S9): 0.55; Increase in the number of yellow wells compared to the reference level ([5]; 2.0 mM, +S9): 0.35; Increase in the number of yellow wells compared to the reference level ([5]; 2.0 mM, without S9): 1.10; Fibroblasts (BJ) MTT ([6]; 100 µM): 99.41±5.96 % of solvent control; Fibroblasts (BJ) MTT ([6]; 150 µM): 91.68±3.64 % of solvent control; Fibroblasts (BJ) MTT ([6]; 200 µM): 87.76±2.71 % of solvent control; Fibroblasts (BJ) MTT ([6]; 250 µM): 82.50±3.99 % of solvent control |
